Data: US20170226139A1, “CRYSTALLINE SALTS OF (Z)-O-OCTADEC-9-EN-1-YL O,O-DIHYDROGEN PHOSPHOROTHIOATE” (priority 2013, published 2017)
Converted amounts (≈) assume the structure as drawn. Read-outs that look alike come from different tables or passages of the source.

Tests used:
[1] = molecular target: T1, LPA5 (Homo sapiens, UniProt Q9H1C0); assay: Calcium-mobilization assay (FURA-2), LPA5 in B103 neuroblastoma cells; assay type: cell-based
T1 construct: expressed in transfected cells; host or cells: B103 rat neuroblastoma
Experimental: We investigated structure-activity relationships across species, LPAR subtypes and between Rx100 and two known process impurities encountered in manufacture: Rx103 (‘E’ isomer) and Rx200 (oleyl phosphate and impurity, which can be an Rx100 degradant along with oleyl alcohol). Rx100, Rx103, Rx200 and native LPA were investigated at different human LPAR subtypes. In addition, the activity of these compounds was evaluated at LPA2 receptors from the rhesus, rat and mouse species. Human LPA1/2/3 subtypes were transfected into mouse embryonic fibroblasts (MEF) or rat hepatoma cells (RH7777)—both of which are normally non-responsive or null to LPA. Human LPA4 was transfected into Chinese hamster ovary (CHO) cells and LPA5 into the B103 neuroblastoma cell line. […] The B103 rat neuroblastoma cell line is endogenously nonresponsive to LPA but expresses heterologous LPA5 receptors well. […] LPAR activation elicits a G-protein-mediated transient rise in intracellular calcium level that is proportional to the concentration of LPA applied. The intracellular calcium level was quantified by the calcium-selective fluorescent indicator FURA-2 (e.g., increased intracellular calcium surge=increased fluorescence).

[2] = Solubility measurement by gravimetric method in various solvents; assay type: physicochemical; conditions: for solubility: thermodynamic from solid
Experimental: In addition, the Rx100 L-Lysate salt was further characterized under abbreviated polymorph evaluation. First, the solubility measurement by gravimetric method was performed. Briefly, excess amount of solid was slurried in various solvents at ambient conditions and elevated temperature (50° C.) for minimum of 24 hours. The slurry was centrifuged using a temperature controlled centrifuge and the supernatant was used for gravimetric method. Table 15 presents the solubility data measured using this gravimetric method in various solvents for the L-Lysine salt. In cases where the solvent dissolved all of the solid, the value is shown as “greater than”.

[3] = Single subcutaneous dose pharmacokinetics in irradiated and unirradiated mice; assay type: in vivo, C57BL/6 mice; conditions: single SC dose 1 mg/kg, 1 mg/kg; for AUC(0-inf): read-out: AUCINF_obs
Excerpt: We performed a randomized, open-label, single-dose, four-arm, subcutaneously-administered, study of the pharmacokinetics of Rx100.Ammonia and Rx100.Lysine in irradiated and unirradiated C57BL/6 mice to evaluate the effect of salt form and irradiation on extravascular pharmacokinetics. The purpose of this study was to evaluate the pharmacokinetic parameters for two salt forms of Rx100 (Lysine and Ammonia) in healthy and PB irradiated (IR) mice when administered as a single dose. Each animal received a 1 mg/kg dose of Rx100.Lysine or Rx100.Ammonia. The animals receiving Rx100.Lysine or Rx100.Ammonia after irradiation were dosed 26±2 hours after irradiation and sampling times are relative to the time of test article dosing.
More specifically, randomized, acclimated, C57BL/6 mice were administered Rx100.Lysine or Rx100.Ammonia (10 mM L-histidine in sterile water for injection, or 1% ethanol, 2% propylene glycol in PBS, respectively) as a single dose as indicated in Table 25.
Blood was collected from 4 male and 4 female mice via cardiac puncture at pre-defined time points relative to test article dosing (0.5, 1, 2, 4, 6, 8, 12, 18, 24, and 48 hours) and collected into micro plasma separator vials (BD Microtainer®) containing lithium heparin. Blood was maintained on ice until centrifugation and subsequent processing. Blood draws were a terminal procedure. Plasma was frozen at −80° C. until submitted for bioanalysis. Sample collection was completed in September 2012. Samples were transferred to Covance in December 2013, and sample analysis was complete in the first quarter of 2014.
A total of 160 male and 160 female C57BL/6 10-12 week old mice were used in this study. Animals were randomized with weight stratification into treatment groups and given a second ear tag. Animals were acclimated for 16-19 days (See below Table 26). Prior to irradiation or dosing (in non-irradiated groups), animals were weighed a second time which was the basis of the animal dose delivered.
TLDs were used for dosimetry and confirmation of the delivered dose. TLDs were analyzed by MD Anderson and have a +/−5% accuracy. A total of 19 dosimeters were used with a mean measured dose of 15.33±0.166 Gy.
Analysis was performed using qualified and validated Phoenix® WinNonlin® Software. The final data provided was imported into Phoenix® WinNonlin®. All data presented in the tables and figures within the results section of this report were generated using the validated Phoenix® WinNonlin® Software.

[4] = abbreviated polymorph screening
[5] = + IR (irradiated mice), whole group (not split by gender), listed as Rx100.Lysine
[6] = healthy mice, F, listed as Rx100.Lysine
[7] = healthy mice, M, listed as Rx100.Lysine
[8] = healthy mice, whole group (not split by gender), listed as Rx100.Lysine
[9] = irradiated mice (15.6 Gy, dosed 26 ± 2 h after), F, listed as Rx100.Lysine
[10] = irradiated mice (15.6 Gy, dosed 26 ± 2 h after), M, listed as Rx100.Lysine

T1 sequence (Q9H1C0 whole entry): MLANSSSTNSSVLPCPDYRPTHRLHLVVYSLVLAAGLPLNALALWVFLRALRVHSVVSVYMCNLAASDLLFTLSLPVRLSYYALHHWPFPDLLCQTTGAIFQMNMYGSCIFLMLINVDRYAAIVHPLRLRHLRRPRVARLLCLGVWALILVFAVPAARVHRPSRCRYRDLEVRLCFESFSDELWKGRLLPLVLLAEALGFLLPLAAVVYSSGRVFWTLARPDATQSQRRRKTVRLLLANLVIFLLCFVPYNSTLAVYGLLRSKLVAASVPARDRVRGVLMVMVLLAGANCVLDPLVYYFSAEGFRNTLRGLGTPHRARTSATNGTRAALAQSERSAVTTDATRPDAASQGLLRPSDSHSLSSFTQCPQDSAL

With `CCCCCCCC/C=C\CCCCCCCCOP(O)(O)=S` [Rx100, (Z)—O-octadec-9-en-1-yl O,O-dihydrogen phosphorothioate] the EC50 [1] was 100 nM and the Emax ([1]; B103, read-out: Emax (% of LPA)) was 104%.
For `CCCCCCCC/C=C\CCCCCCCCOP(O)(O)=S` [Rx100.L-Lysine, (Z)—O-octadec-9-en-1-yl O,O-dihydrogen phosphorothioate], the “Solubility, gravimetric method” value ([2]; EtOH:water (v/v) [1:1], 25° C.) was “Gelled”, the “Solubility, gravimetric method” value ([2]; EtOH:water (v/v) [7:3], 25° C.) was “Gelled” and the “Solubility, gravimetric method” value ([2]; EtOH:water (v/v) [7:3], 50° C.) was “Gelled”. For the same compound, the “Solubility, gravimetric method” value ([2]; IPA:water (v/v) [7:3], 25° C.) was “Gelled”, the “Solubility, gravimetric method” value ([2]; IPA:water (v/v) [7:3], 50° C.) was “Gelled” and the “Solubility, gravimetric method” value ([2]; MeOH:water (v/v) [1:1], 25° C.) was “Gelled”. The “Solubility, gravimetric method” value ([2]; MeOH:water (v/v) [7:3], 50° C.) was “Gelled”, the “Solubility in most aqueous solvent systems” value [2, 4] was “moderate to high solubility” and the “Solubility in organic systems” value [2, 4] was “limited solubility”. The solubility ([2]; aqueous with cosolvent or surfactant or cyclodextrin, EtOH:water (v/v) [1:1], 50° C.) was > 68 mg/mL, the solubility ([2]; aqueous with cosolvent or surfactant or cyclodextrin, EtOH:water (v/v) [3:7], 25° C.) was > 40 mg/mL and the solubility ([2]; aqueous with cosolvent or surfactant or cyclodextrin, EtOH:water (v/v) [3:7], 50° C.) was > 84 mg/mL. For the same compound, the solubility ([2]; aqueous with cosolvent or surfactant or cyclodextrin, IPA:water (v/v) [1:1], 25° C.) was > 40 mg/mL, the solubility ([2]; aqueous with cosolvent or surfactant or cyclodextrin, IPA:water (v/v) [1:1], 50° C.) was > 86 mg/mL and the solubility ([2]; aqueous with cosolvent or surfactant or cyclodextrin, IPA:water (v/v) [3:7], 25° C.) was > 46 mg/mL. For the same compound, the solubility ([2]; aqueous with cosolvent or surfactant or cyclodextrin, IPA:water (v/v) [3:7], 50° C.) was > 70 mg/mL, the solubility ([2]; aqueous with cosolvent or surfactant or cyclodextrin, MeOH:water (v/v) [1:1], 50° C.) was > 80 mg/mL and the solubility ([2]; aqueous with cosolvent or surfactant or cyclodextrin, MeOH:water (v/v) [3:7], 25° C.) was > 48 mg/mL. The solubility ([2]; aqueous with cosolvent or surfactant or cyclodextrin, MeOH:water (v/v) [3:7], 50° C.) was > 86 mg/mL, the solubility ([2]; aqueous with cosolvent or surfactant or cyclodextrin, MeOH:water (v/v) [7:3], 25° C.) was 20 mg/mL (≈ 54.9 mM) and the solubility ([2]; organic solvent or mixture, EtOH, 50° C.) was 3 mg/mL (≈ 8.23 mM). For the same compound, the solubility ([2]; organic solvent or mixture, Heptane, 50° C.) was 3 mg/mL (≈ 8.23 mM), the solubility ([2]; organic solvent or mixture, IPA, 50° C.) was 5 mg/mL (≈ 13.7 mM) and the solubility ([2]; organic solvent or mixture, MTBE, 50° C.) was 4 mg/mL (≈ 11 mM). The solubility ([2]; organic solvent or mixture, MeOH, 50° C.) was 4 mg/mL (≈ 11 mM), the solubility ([2]; Water, 25° C.) was > 48 mg/mL and the solubility ([2]; Water, 50° C.) was > 76 mg/mL. For the same compound, the Cmax ([3]; IR males, listed as Rx100.Lysine) was 299 ng/mL, the AUC(0-inf) ([3]; both sexes, C57BL/6, mouse, plasma, sc, + IR (irradiated mice), whole group (not split by gender)) was 1210 ng·h/mL and the Cmax ([3]; both sexes, C57BL/6, mouse, plasma, sc, + IR (irradiated mice), whole group (not split by gender), read-out: Cmax) was 323 ng/mL. The AUC(0-inf) ([3]; both sexes, C57BL/6, mouse, plasma, sc, healthy mice, whole group (not split by gender)) was 1660 ng·h/mL, the Cmax ([3]; both sexes, C57BL/6, mouse, plasma, sc, healthy mice, whole group (not split by gender), read-out: Cmax) was 512 ng/mL and the AUC ([3]; female, C57BL/6, mouse, plasma, sc, IR females, read-out: AUC) was 1240 ng·h/mL. For the same compound, the Cmax ([3]; female, C57BL/6, mouse, plasma, sc, IR females, read-out: Cmax) was 355 ng/mL, the Cmax ([3]; female, C57BL/6, mouse, plasma, sc, healthy females, read-out: Cmax) was 455 ng/mL and the AUC ([3]; female, C57BL/6, mouse, plasma, sc, healthy females, read-out: exposure (AUC)) was 1590 ng·h/mL. The AUC(0-inf) ([3]; female, C57BL/6, mouse, plasma, sc, healthy mice, F) was 1590 ng·h/mL, the Cmax ([3]; female, C57BL/6, mouse, plasma, sc, healthy mice, F, read-out: Cmax) was 454 ng/mL and the AUC(0-inf) ([3]; female, C57BL/6, mouse, plasma, sc, irradiated mice (15.6 Gy, dosed 26 ± 2 h after), F) was 1240 ng·h/mL. It also gave a Cmax ([3]; female, C57BL/6, mouse, plasma, sc, irradiated mice (15.6 Gy, dosed 26 ± 2 h after), F, read-out: Cmax) of 355 ng/mL, an AUC ([3]; male, C57BL/6, mouse, plasma, sc, IR males, read-out: AUC) of 1170 ng·h/mL and an AUC ([3]; male, C57BL/6, mouse, plasma, sc, healthy males, read-out: AUC) of 1750 ng·h/mL. The Cmax ([3]; male, C57BL/6, mouse, plasma, sc, healthy males, read-out: Cmax) was 570 ng/mL, the AUC(0-inf) ([3]; male, C57BL/6, mouse, plasma, sc, healthy mice, M) was 1750 ng·h/mL and the Cmax ([3]; male, C57BL/6, mouse, plasma, sc, healthy mice, M, read-out: Cmax) was 570 ng/mL. It also gave an AUC(0-inf) ([3]; male, C57BL/6, mouse, plasma, sc, irradiated mice (15.6 Gy, dosed 26 ± 2 h after), M) of 1170 ng·h/mL, a CLss_F [3, 5] of 13.822 mL/min/kg and an HL_Lambda_z [3, 5] of 1.44 h. The Vz_F [3, 5] was 1.72242 L/kg, the CLss_F [3, 6] was 10.462 mL/min/kg and the HL_Lambda_z [3, 6] was 1.84 h. The Vz_F [3, 6] was 1.66432 L/kg, the CLss_F [3, 7] was 9.5183 mL/min/kg and the HL_Lambda_z [3, 7] was 1.91 h. It also gave a Vz_F [3, 7] of 1.57087 L/kg, a CLss_F [3, 8] of 10.032 mL/min/kg and an HL_Lambda_z [3, 8] of 1.16 h. For the same compound, the Vz_F [3, 8] was 1.00622 L/kg, the CLss_F [3, 9] was 13.466 mL/min/kg and the HL_Lambda_z [3, 9] was 1.87 h. For the same compound, the Vz_F [3, 9] was 2.17384 L/kg, the CLss_F [3, 10] was 14.264 mL/min/kg and the Cmax [3, 10] was 298.75 ng/mL. For the same compound, the HL_Lambda_z [3, 10] was 1.32 h and the Vz_F [3, 10] was 1.62547 L/kg.
